Experimental data taken from PubChem BioAssay (NCI).
Values joined by “and” are separate entries in the source; they are usually repeats but may differ in a detail not shown here. Equal entries are not always repeated.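 Following 48 hours of exposure in 96-well plates, responses at five concentrations were used to interpolate endpoints linearly. GI50 = concentration required for 50% inhibition of growth. The concentration for full growth arrest is given as TGI.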

How the values were obtained:
Assay in all cases: NCI tumour cell line growth inhibition, 48 h
[1] = system: 786-0 renal
[2] = system: A498 renal
[3] = system: A549 NSCLC
[4] = system: ACHN renal
[5] = system: BT-549 breast
[6] = system: CAKI-1 renal
[7] = system: CCRF-CEM leukemia
[8] = system: COLO 205 colon
[9] = system: DU-145 prostate
[10] = system: EKVX NSCLC
[11] = system: HCC-2998 colon
[12] = system: HCT-116 colon
[13] = system: HCT-15 colon
[14] = system: HL-60(TB) leukemia
[15] = system: HOP-62 NSCLC
[16] = system: HOP-92 NSCLC
[17] = system: HS 578T breast
[18] = system: HT29 colon
[19] = system: IGROV1 ovarian
[20] = system: K-562 leukemia
[21] = system: KM12 colon
[22] = system: LOX IMVI melanoma
[23] = system: M14 melanoma
[24] = system: MALME-3M melanoma
[25] = system: MCF7 breast
[26] = system: MDA-MB-231 breast
[27] = system: MDA-MB-435
[28] = system: MOLT-4 leukemia
[29] = system: NCI-H226 lung
[30] = system: NCI-H23 lung
[31] = system: NCI-H460 lung
[32] = system: NCI-H522 lung
[33] = system: NCI/ADR-RES ovarian
[34] = system: OVCAR-3 ovarian
[35] = system: OVCAR-4 ovarian
[36] = system: OVCAR-5 ovarian
[37] = system: OVCAR-8 ovarian
[38] = system: PC-3 prostate
[39] = system: RPMI-8226 leukemia
[40] = system: RXF 393 renal
[41] = system: SF-268 CNS
[42] = system: SF-295 CNS
[43] = system: SF-539 CNS
[44] = system: SK-MEL-2 melanoma
[45] = system: SK-MEL-28 melanoma
[46] = system: SK-MEL-5 melanoma
[47] = system: SK-OV-3 ovarian
[48] = system: SN12C renal
[49] = system: SNB-19 CNS
[50] = system: SNB-75 CNS
[51] = system: SR leukemia
[52] = system: SW-620 colon
[53] = system: T-47D breast
[54] = system: TK-10 renal
[55] = system: U251 CNS
[56] = system: UACC-257 melanoma
[57] = system: UACC-62 melanoma
[58] = system: UO-31 renal

## CCN(CC)S(=O)(=O)c1ccc(OC)c(Nc2ncc(-c3ccccc3)o2)c1
[1]
  GI50: 22800 nM
  TGI: > 25 µM
[2]
  GI50: 1240 nM
  TGI: > 15.5 µM
[3]
  GI50: 24.9 µM
  TGI: > 25 µM
[4]
  GI50: > 22.7 µM
  TGI: > 25 µM
[5]
  GI50: > 18400 nM
  TGI: > 25 µM
[6]
  GI50: > 25 µM
  TGI: > 25 µM
[7]
  GI50: > 19300 nM
  TGI: > 25 µM
[8]
  GI50: > 25 µM
  TGI: > 25 µM
[9]
  GI50: > 25 µM
  TGI: > 25 µM
[10]
  GI50: > 25 µM
  TGI: > 25 µM
[11]
  GI50: > 25 µM
  TGI: > 25 µM
[12]
  GI50: > 17.9 µM
  TGI: > 25 µM
[13]
  GI50: > 15.5 µM
  TGI: > 25 µM
[14]
  GI50: > 15 µM
  TGI: > 25 µM
[15]
  GI50: > 20.1 µM
  TGI: > 25 µM
[16]
  GI50: 7120 nM
  TGI: > 25 µM
[17]
  GI50: > 14400 nM
  TGI: > 25 µM
[18]
  GI50: > 17.6 µM
  TGI: > 25 µM
[19]
  GI50: > 25000 nM
  TGI: > 25 µM
[20]
  GI50: > 16.2 µM
  TGI: > 25 µM
[21]
  GI50: 845 nM
  TGI: > 25 µM
[22]
  GI50: > 22.6 µM
  TGI: > 25 µM
[23]
  GI50: > 25 µM
  TGI: > 25 µM
[24]
  GI50: > 25 µM
  TGI: > 25 µM
[25]
  GI50: > 14700 nM
  TGI: > 25 µM
[26]
  GI50: > 13.9 µM
  TGI: > 25 µM
[27]
  GI50: > 25 µM
  TGI: > 25 µM
[28]
  GI50: > 18300 nM
  TGI: > 25 µM
[29]
  GI50: > 5.28 µM
  TGI: > 25 µM
[30]
  GI50: > 22.7 µM
  TGI: > 25 µM
[31]
  GI50: > 23100 nM
  TGI: > 25 µM
[32]
  GI50: > 16.9 µM
  TGI: > 25 µM
[33]
  GI50: > 17.8 µM
  TGI: > 25 µM
[34]
  GI50: > 19.5 µM
  TGI: > 25 µM
[35]
  GI50: 5.57 µM
  TGI: > 25 µM
[36]
  GI50: > 21.7 µM
  TGI: > 25 µM
[37]
  GI50: > 25 µM
  TGI: > 25 µM
[38]
  GI50: > 15900 nM
  TGI: > 25 µM
[39]
  GI50: > 25 µM
  TGI: > 25 µM
[40]
  GI50: > 10600 nM
  TGI: > 25 µM
[41]
  GI50: > 22.3 µM
  TGI: > 25 µM
[42]
  GI50: > 16500 nM
  TGI: > 25 µM
[43]
  GI50: > 17300 nM
  TGI: > 25 µM
[44]
  GI50: > 22.7 µM
  TGI: > 25 µM
[45]
  GI50: > 25 µM
  TGI: > 25 µM
[46]
  GI50: > 12.2 µM
  TGI: > 25 µM
[47]
  GI50: 20900 nM
  TGI: > 25 µM
[48]
  GI50: > 22.7 µM
  TGI: > 25 µM
[49]
  GI50: > 19200 nM
  TGI: > 25 µM
[50]
  GI50: > 9360 nM
  TGI: > 25 µM
[51]
  GI50: > 14.1 µM
  TGI: > 25 µM
[52]
  GI50: > 23.7 µM
  TGI: > 25 µM
[53]
  GI50: > 11000 nM
  TGI: 24.4 µM
[54]
  GI50: > 17.4 µM
  TGI: > 25 µM
[55]
  GI50: > 18700 nM
  TGI: > 25 µM
[56]
  GI50: > 25 µM
  TGI: > 25 µM
[57]
  GI50: > 18.3 µM
  TGI: > 25 µM
[58]
  GI50: > 12.9 µM
  TGI: > 25 µM

## CC(C)NC[C@@H](C(=O)N1CCN(c2ncnc3c2[C@H](C)C[C@H]3O)CC1)c1ccc(Cl)cc1
[1]
  GI50: 334 nM and 546 nM
  TGI: > 100 µM
[2]
  GI50: 396 nM and 240 nM
  TGI: 5.88 µM and 4.3 µM
[3]
  GI50: > 10 µM and 5.05 µM
  TGI: > 100 µM
[4]
  GI50: > 10 µM and 22.8 µM
  TGI: > 100 µM
[5]
  GI50: 752 nM and 1590 nM
  TGI: > 10 µM and 56.2 µM
[6]
  GI50: > 10 µM and 36.1 µM
  TGI: > 100 µM
[7]
  GI50: 1570 nM and 1240 nM
  TGI: > 100 µM
[8]
  GI50: 3.48 µM and 7.6 µM
  TGI: > 100 µM
[9]
  GI50: > 10 µM and 40.3 µM
  TGI: > 100 µM
[10]
  GI50: > 10 µM
  TGI: > 10 µM
[11]
  TGI: > 100 µM
[12]
  GI50: > 10 µM and 23.8 µM
  TGI: > 100 µM
[13]
  GI50: > 10 µM and 44.8 µM
  TGI: > 100 µM
[14]
  GI50: > 10 µM and 39.4 µM
  TGI: > 100 µM
[15]
  GI50: > 10 µM and 11.9 µM
  TGI: > 100 µM
[16]
  GI50: 407 nM and 1130 nM
  TGI: 6.8 µM and 11.6 µM
[17]
  GI50: 1000 nM and 657 nM
  TGI: > 10 µM and 18.4 µM
[18]
  GI50: 1.58 µM and 3.45 µM
  TGI: > 100 µM
[19]
  GI50: 156 nM and 203 nM
  TGI: 0.731 µM and 3.02 µM
[20]
  GI50: > 10 µM and 48.1 µM
  TGI: > 100 µM
[21]
  GI50: 891 nM and 1430 nM
  TGI: > 91.9 µM
[22]
  GI50: > 10 µM and 66 µM
  TGI: > 100 µM
[23]
  GI50: > 61.5 µM
  TGI: > 100 µM
[24]
  GI50: > 10 µM and 4.54 µM
  TGI: > 76.7 µM
[25]
  GI50: 1600 nM and 1740 nM
  TGI: > 100 µM
[26]
  GI50: > 69 µM
  TGI: > 100 µM
[27]
  GI50: > 10 µM and 20.9 µM
  TGI: > 100 µM
[28]
  GI50: 676 nM and 747 nM
  TGI: > 10 µM and 73.9 µM
[29]
  GI50: 5.16 µM and 13.3 µM
  TGI: > 100 µM
[30]
  GI50: > 10 µM and 31.2 µM
  TGI: > 100 µM
[31]
  GI50: 1470 nM and 2330 nM
  TGI: > 100 µM
[32]
  GI50: > 100 µM
  TGI: > 100 µM
[33]
  GI50: > 100 µM
  TGI: > 100 µM
[34]
  GI50: > 10 µM and 12.3 µM
  TGI: > 100 µM
[35]
  GI50: > 74 µM
  TGI: > 100 µM
[36]
  GI50: > 10 µM and 29.8 µM
  TGI: > 100 µM
[37]
  GI50: > 100 µM
  TGI: > 100 µM
[38]
  GI50: 566 nM and 887 nM
  TGI: > 100 µM
[39]
  GI50: > 10 µM and 38.1 µM
  TGI: > 100 µM
[40]
  GI50: 293 nM and 341 nM
  TGI: 4.85 µM and 5.55 µM
[41]
  GI50: > 10 µM and 28.7 µM
  TGI: > 100 µM
[42]
  GI50: 680 nM and 470 nM
  TGI: > 75.1 µM
[43]
  GI50: 401 nM and 396 nM
  TGI: > 10 µM and 40.1 µM
[44]
  GI50: > 10 µM and 33 µM
  TGI: > 80.2 µM
[45]
  GI50: > 10 µM and 36.6 µM
  TGI: > 100 µM
[46]
  GI50: > 10 µM and 27.8 µM
  TGI: > 100 µM
[47]
  GI50: 596 nM and 783 nM
  TGI: > 100 µM
[48]
  GI50: > 10 µM and 44.7 µM
  TGI: > 100 µM
[49]
  GI50: 1640 nM and 1380 nM
  TGI: > 89.5 µM
[50]
  GI50: 285 nM and 213 nM
  TGI: > 10 µM and 5.44 µM
[51]
  GI50: > 10 µM and 13 µM
  TGI: > 71.5 µM
[52]
  GI50: > 10 µM and 35.9 µM
  TGI: > 100 µM
[53]
  GI50: 208 nM and 236 nM
[54]
  GI50: 1.29 µM and 3.32 µM
  TGI: > 66.4 µM
[55]
  GI50: 958 nM and 683 nM
  TGI: > 100 µM
[56]
  GI50: > 10 µM and 10.8 µM
  TGI: > 10 µM and 49.8 µM
[57]
  GI50: 1.9 µM and 6 µM
  TGI: > 100 µM
[58]
  GI50: 6.57 µM and 16.2 µM
  TGI: > 87.3 µM
